This note sets out measurements from ChEMBL document CHEMBL4251548, “Efficient click chemistry towards fatty acids containing 1,2,3-triazole: Design and synthesis as potential antifungal drugs for Candida albicans” (2017).

Assay [1] concerns Candida albicans. In words: Inhibition of germ tube formation in Candida albicans SC5314 assessed as yeast to hyphal conversion at 30 to 300 uM after 2 hrs by differential interference contrast microscopic analysis relative to control. Type of assay: functional. Further details: scale not given: the % may be the effect or the level left.
The subject of assay [2] is Candida albicans. Nature of the assay: Inhibition of hypal growth in Candida albicans SC5314 assessed as length of germ tube at 200 uM after 3 hrs by differential interference contrast microscopic analysis (reference value: 149.9 +/- 22.3 micrometer). Type of assay: functional.
For assay [3], the system named is Candida albicans. In words: Inhibition of hypal growth in Candida albicans SC5314 assessed as length of germ tube at 200 uM measured immediately by differential interference contrast microscopic analysis (reference value: 70.3 +/- 12.3 micrometer). It counts as functional.
Assay [4] relates to Candida albicans. In words: Inhibition of germ tube formation in Candida albicans SC5314 assessed as reduction in yeast to hyphal conversion at >200 uM after 4 hrs by differential interference contrast microscopic analysis relative to control. Type of assay: functional.
The test system of assay [5] is Candida albicans. Nature of the assay: Inhibition of hypal growth in Candida albicans SC5314 assessed as length of germ tube at 200 uM after 9 hrs by differential interference contrast microscopic analysis (reference value: 223.9 +/- 24.5 micrometer). It counts as functional.
Assay [6] relates to Candida albicans. In words: Antifungal activity against Candida albicans SC5314 assessed as inhibition of yeast growth at <15 uM after 24 hrs by CLSI broth microdilution method. Type of assay: functional, organism-based. In general terms: Dilution methods test growth across graded concentrations, often in twofold steps.
In assay [7] the test system is Candida albicans. In words: Antifungal activity against Candida albicans SC5314 assessed as inhibition of yeast growth at >30 uM after 24 hrs by CLSI broth microdilution method. Type of assay: functional, organism-based.
Assay [8] relates to Candida albicans. Nature of the assay: Inhibition of hypal growth in Candida albicans SC5314 assessed as length of germ tube at 200 uM after 6 hrs by differential interference contrast microscopic analysis (reference value: 235.2 +/- 40.4 micrometer). It counts as functional.
The subject of assay [9] is Candida albicans. In words: Antifungal activity against Candida albicans SC5314 assessed as inhibition of yeast growth at 60 uM after 24 hrs by CLSI broth microdilution method relative to control. Type of assay: functional. The settings on record: SC5314, 24 h.
Assay [10] concerns Candida albicans. In words: Antifungal activity against Candida albicans SC5314 assessed as inhibition of yeast growth at >120 uM after 24 hrs by CLSI broth microdilution method. Type of assay: functional, organism-based.
Assay [11] relates to Candida albicans. In words: Inhibition of germ tube formation in Candida albicans SC5314 assessed as reduction in yeast to hyphal conversion at 30 to 300 uM after 4 hrs by differential interference contrast microscopic analysis. Type of assay: functional, organism-based.

Molecules are shown by their SMILES. The source made the active and inactive calls. No cut-off for these calls is given here. A value given as a limit tells only on which side of the number the result lay.

As for `CCCCCCCCOc1ccc(C(=O)O)cc1`, the Activity in the assay with Candida albicans [1] is greater than 95%.
On the same count and under the same terms, with `CCCCCCCCc1ccc(C(=O)O)s1` the figure was greater than 95%.
For orientation: inhibition means the share of the control response that was lost under treatment. For the compound `CCCCCCCCCCn1cc(C(=O)O)nn1`, the Activity turned out to be 59.1 um in the assay with Candida albicans [2], 71.8 um with Candida albicans [3], 53.3 um in the assay on Candida albicans [5] and 45 um in the assay on Candida albicans [8]. Further, in the assay with Candida albicans [4], the “inhibition (INH)” value is 95%. For the same compound, the inhibition result in the assay on Candida albicans [6] and with Candida albicans [7] was “Active” in each case. In the assay on Candida albicans [9], the inhibition at 60 µM stood at 90%.
As for `CCCCCCCCn1cc(C(=O)O)nn1`, the Activity in the assay with Candida albicans [2] was found to be 64.4 um; in the assay with Candida albicans [3] it was 73.4 um; in the assay on Candida albicans [5], 74.2 um; in the assay on Candida albicans [8], 54.6 um. Also, the “inhibition (INH)” value with Candida albicans [4] worked out at 95%. Moreover, the inhibition result in the assay on Candida albicans [6], with Candida albicans [7] and in the assay with Candida albicans [10] was “Active” in each case. Besides, the inhibition at 60 µM in the assay with Candida albicans [9] stood at 90%.
Regarding `CCCCCCn1cc(C(=O)O)nn1`, the Activity in the assay with Candida albicans [2] came to 142.8 um; with Candida albicans [3], 66.5 um; with Candida albicans [5] it was 223.5 um; in the assay with Candida albicans [8], 207.8 um. For the same compound, the inhibition entry with Candida albicans [6], with Candida albicans [10] and in the assay on Candida albicans [11] was “Active” throughout.
As to `CCCCCCCCC/C=C\C(=O)O`, the Activity in the assay with Candida albicans [2] amounted to 73.3 um; in the assay with Candida albicans [3], 65.3 um; in the assay with Candida albicans [5], 64.2 um; in the assay with Candida albicans [8] it was 63.5 um. Further, the inhibition result in the assay on Candida albicans [6], in the assay with Candida albicans [7] and with Candida albicans [11] was “Active” throughout.
`O=C(O)c1cn(CCCCCCO)nn1`: the inhibition entry in the assay with Candida albicans [6] and with Candida albicans [11] was “Active” throughout.
